This is an account of results in article PMC11513893, “Discovery of Oral Degraders of the ROS1 Fusion Protein with Potent Activity against Secondary Resistance Mutations” (Journal of Medicinal Chemistry, 2024).

A word on the IC50: it is the concentration that inhibits the measured activity by half.

Assay [1] concerns Ba/F3 ROS1 G2032R-F2075V. Kind of assay: Antiproliferation assay. Type of assay: cell-based. To be noted: Mus musculus, BaF3; Ba/F3 cells, cell growth inhibition. From the text:
(§1) To assess targeted degradation of ROS1 fusion proteins, we first established a mouse pro-B cell line Ba/F3 as a model expressing the CD74-ROS1 oncogene or CD74-ROS1 with clinically observed secondary/tertiary mutations. The Ba/F3 cell line is dependent on interleukin-3 for survival and proliferation. Upon transduction of oncogenic ROS1, Ba/F3 cells become independent of interleukin-3 but dependent on the transduced driver gene.
(§2) Ba/F3 immortalized murine bone marrow–derived pro-B cells were obtained from Creative Biogene (Shirley, NY) and cultured in RPMI supplemented with 10% FBS and IL3 (0.5 ng/mL). Ba/F3 cells expressing ROS1 variants were maintained in RPMI supplemented with 10% FBS and puromycin (0.7 mg/mL). […] Each compound was dissolved in DMSO and serially diluted in RPMI for cell culture experiments.
(§3) To assess the 72 h effect of drug treatment on cell proliferation, 2000 to 3000 cells were plated in replicates of three in 96-well plates. The plates were placed in an incubator at 37 °C, 5% CO2 for 72 h. Following drug treatments, the cells were incubated with the Alamar Blue Assay reagent (BioRad), 5 μL each well for 4 h at 37 °C and 5% CO2. Luminescence was measured on a multiplate reader and analyzed. […] IC50 values were determined using a nonlinear regression model with a sigmoidal dose response in GraphPad. The data were collected based on triplicate experiments, and presented as mean ± SD.
(§4) The resulting virus was used to infect Ba/F3 cells. After retroviral infection, Ba/F3 cells were selected by incubation with puromycin (0.7 mg/mL) for 2 weeks. For Ba/F3 cells infected by the CD74–ROS1 variants, IL3 was withdrawn from the culture medium at least 2 weeks before the experiments.

The test system of assay [2] is Ba/F3 ROS1 L2026M. As to the kind of experiment: Antiproliferation assay. It is filed as cell-based. The note with it: Mus musculus, BaF3; Ba/F3 cells, cell growth inhibition.
Excerpt: as §1, §2, §3, §4

Assay [3] deals with Ba/F3 ROS1 D2033N. As to the kind of experiment: Antiproliferation assay. To be noted: Mus musculus, BaF3; Ba/F3 cells, cell growth inhibition. Type of assay: cell-based.
Excerpt: as §1, §2, §3, §4

Assay [4] deals with Ba/F3 ROS1-G2032R. As to the kind of experiment: Antiproliferation assay. To be noted: Mus musculus, BaF3; Ba/F3 cells, cell growth inhibition, 72 h. Type of assay: cell-based, mouse.
Assay [5] relates to Ba/F3 CD74-ROS1 non mutant. Kind of assay: Antiproliferation assay (Alamar Blue, 72 h). Type of assay: cell-based, mouse. To be noted: Mus musculus, BaF3, 72 h, Ba/F3 cells, cell growth inhibition. A general note: Resazurin is reduced to fluorescent resorufin, in cell work by metabolically active cells.
Assay [6] concerns Ba/F3 ROS1 L2086F. Kind of assay: Antiproliferation assay. It is filed as cell-based. The note with it: Mus musculus, BaF3; Ba/F3 cells, cell growth inhibition.
Excerpt: as §1, with “gene. The Ba/F3 models have been effectively employed in the discovery and preclinical development of next generation ROS1 inhibitors.[11],[14],[15] We have tested ROS1 inhibitors against these Ba/F3 cells to validate their sensitivity and resistance to ROS1 inhibition.” for “gene.”
(§5) Ba/F3 immortalized murine bone marrow–derived pro-B cells were obtained from Creative Biogene (Shirley, NY) and cultured in RPMI supplemented with 10% FBS and IL3 (0.5 ng/mL). Ba/F3 cells expressing ROS1 variants were maintained in RPMI supplemented with 10% FBS and puromycin (0.7 mg/mL). Crizotinib, ceritinib, brigatinib, repotrectinib, and lorlatinib were purchased from MedChem Express. Each compound was dissolved in DMSO and serially diluted in RPMI for cell culture experiments.
as §3
(§6) cDNA encoding CD74-ROS1 or mutant CD74–ROS1 was cloned into retroviral expression vectors (pLenti), and viruses were generated in HEK293T cells by transfecting with packaging plasmids. The resulting virus was used to infect Ba/F3 cells. After retroviral infection, Ba/F3 cells were selected by incubation with puromycin (0.7 mg/mL) for 2 weeks. For Ba/F3 cells infected by the CD74–ROS1 variants, IL3 was withdrawn from the culture medium at least 2 weeks before the experiments.

The subject of assay [7] is Ba/F3 cell lines engineered to express the oncogenic ROS1 rearrangement. To be noted: cited from earlier work.
Details of assay [8]: method as in PMID 30980071. To be noted: patients; cited from earlier work.
For assay [9], the system named is Ba/F3 CD74-ROS1 WT xenograft tumors. Kind of assay: Mouse efficacy study, Ba/F3 CD74-ROS1 xenograft. The note with it: NOD/SCID mice, 30 mg/kg PO qd. It is filed as in vivo. On the procedure: (§7) All the procedures related to animal handling, care, and treatment in this study were performed according to guidelines approved by the Institutional Animal Care and Use Committee (IACUC) of Xavier University of Louisiana following the guidance of the AAALAC. Ba/F3-ROS1 and Ba/F3-ROS1-G2032R cells were maintained in RPMI 1640 medium supplemented with 10% fetal bovine serum. The cells growing in an exponential growth phase were harvested and counted for tumor inoculation. Female NOD/SCID mice 6–8 weeks of age were allowed to adapt to laboratory conditions for 10 days prior to dosing and were allowed food and water ad libitum. Each mouse was inoculated subcutaneously in the right flank with Ba/F3 CD74-ROS1 or Ba/F3 SL34A2-ROS1 G2032R cells (1 × 10^6) in 0.2 mL of PBS mixed with Matrigel (50:50) for tumor development.

For assay [10], the system named is Ba/F3 SLC34A2-ROS1 G2032R xenograft tumors. As to the kind of experiment: Mouse efficacy study, Ba/F3 SLC34A2-ROS1 G2032R xenograft. To be noted: NOD/SCID mice, 30 mg/kg PO qd. It is filed as in vivo. On the procedure:
as §7

Assay [11] deals with Ba/F3 ROS1 (SLC34A2) G2032R-F2075C. Kind of assay: Antiproliferation assay. Type of assay: cell-based. The note with it: Mus musculus, BaF3; Ba/F3 cell line. On the procedure:
as §5, §3

Assay [12] has as its system Ba/F3 ROS1 (SLC34A2) F2075C-G1837E. Kind of assay: Antiproliferation assay. It is filed as cell-based. To be noted: Mus musculus, BaF3; Ba/F3 cell line. The method, then: as §5, §3
The subject of assay [13] is Ba/F3 ROS1 (SLC34A2) G2032R-D2113G. As to the kind of experiment: Antiproliferation assay. It is filed as cell-based. The note with it: Mus musculus, BaF3; Ba/F3 cell line. On the procedure: as §5, §3
The subject of assay [14] is Ba/F3 ROS1 (SLC34A2) V2098I. As to the kind of experiment: Antiproliferation assay. Type of assay: cell-based. To be noted: Mus musculus, BaF3; Ba/F3 cell line. On the procedure:
as §2, §3

Assay [15] relates to Ba/F3 ROS1 (SLC34A2) D2033N. As to the kind of experiment: Antiproliferation assay. Type of assay: cell-based. The note with it: Mus musculus, BaF3; Ba/F3 cell line. On the procedure: as §2, §3
Assay [16] concerns Ba/F3 ROS1 (SLC34A2) G2032R. Kind of assay: Antiproliferation assay. It is filed as cell-based. The note with it: Mus musculus, BaF3; Ba/F3 cell line. On the procedure:
as §2, §3

For assay [17], the system named is Ba/F3 ROS1 (SLC34A2) G2032R-F2075 V. As to the kind of experiment: Antiproliferation assay. Type of assay: cell-based. The note with it: Mus musculus, BaF3; Ba/F3 cell line. On the procedure: as §2, §3
Assay [18] concerns Ba/F3 ROS1 (SLC34A2) L2026M. Kind of assay: Antiproliferation assay. Type of assay: cell-based. The note with it: Mus musculus, BaF3; Ba/F3 cell line. On the procedure:
as §2, §3

In assay [19] the test system is Ba/F3 ROS1 (CD74) S1986F-G2032R. As to the kind of experiment: Antiproliferation assay. The note with it: Mus musculus, BaF3; Ba/F3 cell line. Type of assay: cell-based. On the procedure: as §5, §3, §6
Assay [20] deals with Ba/F3 ROS1 (CD74) S1986F-L2086F. Kind of assay: Antiproliferation assay. Type of assay: cell-based. To be noted: Mus musculus, BaF3; Ba/F3 cell line. The method, then:
as §5, §3, §6

Assay [21] deals with Ba/F3 ROS1 (CD74) L2086F. As to the kind of experiment: Antiproliferation assay. It is filed as cell-based. To be noted: Mus musculus, BaF3; Ba/F3 cell line. The method, then:
as §5, §3, §6

Assay [22] has as its system Ba/F3 ROS1 (CD74) S1986F-G2032R-L2086F. Kind of assay: Antiproliferation assay. Type of assay: cell-based. To be noted: Mus musculus, BaF3; Ba/F3 cell line. The method, then:
as §5, §3, §6

Assay [23] relates to Ba/F3 ROS1 (CD74) G2032R. As to the kind of experiment: Antiproliferation assay. It is filed as cell-based. To be noted: Mus musculus, BaF3; Ba/F3 cell line. On the procedure: as §5, §3, §6
Assay [24] has as its system Ba/F3 ROS1 (CD74) G2032R-L2086F. As to the kind of experiment: Antiproliferation assay. It is filed as cell-based. The note with it: Mus musculus, BaF3; Ba/F3 cell line. On the procedure:
as §5, §3, §6

Consider `Cc1cc(Nc2ncc(Cl)c(Nc3ccccc3S(=O)(=O)C(C)C)n2)c(OC(C)C)cc1C1CCNCC1` [ceritinib], for which the IC50 is more than 2000 nM in assay [1]; 43 ± 5 nM in [2]; 135 ± 27 nM in assay [3]; 821 ± 148 nM in assay [4]; 14.5 ± 2.2 nM in assay [5]; 215 ± 33 nM in assay [6]. Further, the IC50 in assay [7] was 180 nM.

Turning to `C[C@@H](Oc1cc(-c2cnn(C3CCNCC3)c2)cnc1N)c1c(Cl)ccc(F)c1Cl` [crizotinib], the objective response rate in [8] was 72%. Moreover, the progression-free survival in assay [8] is 19.2 months. Further, the IC50 in assay [1] is more than 2000 nM; in assay [3], 187 ± 39 nM; in assay [4], more than 2000 nM; in assay [6], 745 ± 88 nM. For the same molecule, the results for the “TGI (tumor growth inhibition)” value in assay [9] and in assay [10] were 35% and 7%, respectively.

As for `C[C@H]1Oc2cc(cnc2N)-c2c(nn(C)c2C#N)CN(C)C(=O)c2ccc(F)cc21` [lorlatinib], the IC50 in assay [11] was more than 2000 nM; in assay [12] it was 0.1 ± 0.1 nM; in [13], 142 ± 25.1 nM; in assay [1] it was 233 ± 31 nM; in assay [2] it was 1 ± 0.4 nM; in [3], 7.6 ± 1.3 nM. Further, the IC50 was 338 ± 55 nM in assay [4]; more than 2000 nM in assay [6]; 1.5 ± 0.4 nM in assay [14]; 7.6 ± 0.5 nM in assay [15]; 244 ± 35.3 nM in assay [16]; 341 ± 75.5 nM in assay [17]. The IC50 in [18] was 1.1 ± 0.2 nM; in assay [19] it was 503 ± 77.4 nM; in assay [20], more than 2000 nM; in [21] it was more than 2000 nM; in [22] it was more than 2000 nM; in assay [23] it was 385 ± 76 nM. For the same molecule, the half-maximal inhibitory concentration (IC50) in assay [24] is more than 2000 nM.
